In ChEMBL document CHEMBL1133055, “6-Acylamino-2-[(alkylsulfonyl)oxy]-1H-isoindole-1,3-dione mechanism-based inhibitors of human leukocyte elastase” (Bioorg Med Chem Lett, 2000):

Tests used:
[1] = molecular target: T1, Neutrophil elastase (Homo sapiens) (UniProt P08246); experiment: Inhibition of human leukocyte elastase; design: unit not given here
T1 sequence (whole entry): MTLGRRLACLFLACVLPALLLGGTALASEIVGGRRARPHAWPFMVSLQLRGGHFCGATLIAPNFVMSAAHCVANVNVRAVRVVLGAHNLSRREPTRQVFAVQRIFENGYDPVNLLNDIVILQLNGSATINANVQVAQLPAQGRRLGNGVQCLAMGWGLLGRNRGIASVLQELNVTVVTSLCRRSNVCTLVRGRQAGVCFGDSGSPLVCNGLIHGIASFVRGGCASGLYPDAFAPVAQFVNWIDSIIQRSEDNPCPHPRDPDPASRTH

[2] = organism: Homo sapiens; experiment: Ratio of kobs/[l] for human leukocyte elastase and kobs/[l] for chymotrypsin
[3] = organism: Homo sapiens; experiment: In vitro inhibition of Serine protease chymotrypsin; design: unit not given here

Structure (SMILES)	k obs / 1 [1]	Ratio [2]	k obs / 1 [3]
CCS(=O)(=O)ON1C(=O)c2ccc(NC(=O)CCCC(=O)OC)cc2C1=O	220000	16	14000
CS(=O)(=O)ON1C(=O)c2ccc(NC(=O)/C=C/c3ccccc3)cc2C1=O	20000	13	1600
CS(=O)(=O)ON1C(=O)c2ccc(NC(=O)c3ccccc3)cc2C1=O	25000	6.9	3600
CS(=O)(=O)ON1C(=O)c2ccc(N)cc2C1=O	110000	9.2	12000
COC(=O)CCCC(=O)Nc1ccc2c(c1)C(=O)N(OS(C)(=O)=O)C2=O	57000	8.6	6600

Now from value to molecule:

k obs / 1 [1]	Ratio [2]	k obs / 1 [3]	Structure (SMILES)
56000	11	5300	CCS(=O)(=O)ON1C(=O)c2ccc(NC(=O)C(=O)OC)cc2C1=O
60000	4.6	13000	CCS(=O)(=O)ON1C(=O)c2ccc(N)cc2C1=O
25000	2.6	9600	CCS(=O)(=O)ON1C(=O)c2ccc(NC(=O)CCC(=O)OC)cc2C1=O
25000	7.6	3300	CS(=O)(=O)ON1C(=O)c2ccc(NC(=O)c3cccc4ccccc34)cc2C1=O
30000	5.6	5400	COC(=O)C(=O)Nc1ccc2c(c1)C(=O)N(OS(C)(=O)=O)C2=O
9700	2	4800	CS(=O)(=O)ON1C(=O)c2ccc(NC(=O)CCc3ccccc3)cc2C1=O
160000	15	11000	Cc1ccc(S(=O)(=O)N[C@@H](Cc2ccccc2)C(=O)Nc2ccc3c(c2)C(=O)N(OS(C)(=O)=O)C3=O)cc1
